Source: ChEMBL document CHEMBL3882734, “Therapeutic compounds” (2010)
pEC50, pKi: −log10 of the molar value. Values belong to the compound of their own block, whether it stands above or below them.

Experiments:
[1] = biological target: T1, Prostaglandin E2 receptor EP2 subtype (Homo sapiens, UniProt P43116); experiment: Displacement of [3H]PGE2 from human EP2 receptor expressed in HEK293 cells at pH 7.3 membranes incubated for 60 mins; format: cell-based
[2] = biological target: T1, Prostaglandin E2 receptor EP2 subtype; experiment: Agonist activity at human recombinant EP2 receptor expressed in HEK293 cells assessed as effect on calcium accumulation by Fluo-4 AM dye based FLIPR assay; format: functional, cell-based
Canis familiaris [3] = experiment: Effect on ocular surface hyperemia in Beagle dog assessed as maximum ocular surface hyperemia score assigned value at 0.1% administered topically to one eye immediately after first intraocular pressure reading by pneumatonometry; format: functional, Canis lupus familiaris
Rhesus monkey [4] = experiment: Reduction in intraocular pressure in monkey assessed as maximal change in intraocular pressure at 0.1% administered topically to one eye immediately after first intraocular pressure reading by pneumatonometry; format: functional, Macaca mulatta
Rhesus monkey [5] = experiment: Reduction in intraocular pressure in monkey assessed as maximal change in intraocular pressure at 0.3% administered topically to one eye immediately after first intraocular pressure reading by pneumatonometry; format: functional, Macaca mulatta
Canis familiaris [6] = experiment: Effect on ocular surface hyperemia in Beagle dog assessed as maximum ocular surface hyperemia score assigned value at 0.3% administered topically to one eye immediately after first intraocular pressure reading by pneumatonometry; format: functional, Canis lupus familiaris
Rhesus monkey [7] = experiment: Reduction in intraocular pressure in monkey assessed as maximal change in intraocular pressure at 0.01% administered topically to one eye immediately after first intraocular pressure reading by pneumatonometry; format: functional, Macaca mulatta
[8] = biological target: Prostaglandin E2 receptor EP4 subtype (Homo sapiens, UniProt P35408); experiment: Displacement of [3H]PGE2 from human EP4 receptor expressed in HEK293 cells membranes incubated for 60 mins; format: cell membranes
Prostaglandin E2 receptor EP4 subtype, sequence (P35408 whole entry): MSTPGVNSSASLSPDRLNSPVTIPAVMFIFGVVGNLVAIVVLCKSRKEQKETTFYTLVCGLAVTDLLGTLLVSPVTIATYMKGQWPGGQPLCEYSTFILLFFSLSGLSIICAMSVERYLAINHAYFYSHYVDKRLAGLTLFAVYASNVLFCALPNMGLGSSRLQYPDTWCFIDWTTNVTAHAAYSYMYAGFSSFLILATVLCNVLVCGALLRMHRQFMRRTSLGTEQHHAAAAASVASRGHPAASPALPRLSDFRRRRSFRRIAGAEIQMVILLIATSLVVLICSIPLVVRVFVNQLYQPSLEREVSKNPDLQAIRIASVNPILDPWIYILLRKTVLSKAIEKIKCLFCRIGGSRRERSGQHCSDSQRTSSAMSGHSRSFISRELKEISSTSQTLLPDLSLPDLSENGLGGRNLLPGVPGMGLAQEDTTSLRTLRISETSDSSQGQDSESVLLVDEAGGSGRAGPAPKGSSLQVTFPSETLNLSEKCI

T1 sequence (P43116 whole entry): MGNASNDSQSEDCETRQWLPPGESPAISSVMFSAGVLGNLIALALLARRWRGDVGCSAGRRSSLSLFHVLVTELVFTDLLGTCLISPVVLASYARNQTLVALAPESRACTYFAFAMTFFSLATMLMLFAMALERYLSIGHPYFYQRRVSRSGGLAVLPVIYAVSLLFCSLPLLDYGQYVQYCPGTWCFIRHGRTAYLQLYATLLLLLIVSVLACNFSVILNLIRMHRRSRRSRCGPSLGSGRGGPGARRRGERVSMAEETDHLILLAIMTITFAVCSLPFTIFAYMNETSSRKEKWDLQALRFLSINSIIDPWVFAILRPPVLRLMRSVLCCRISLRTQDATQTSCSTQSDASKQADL

pKi ([1]; hek293): 4.30 | pEC50 ([2]; hek293): 4.30
Structure (SMILES): CCCCCC(O)c1ccc([C@H]2CC[C@@H](Cl)[C@@H]2CCCCCCC(=O)OC)cc1 (stereo partly specified)

Structure (SMILES): O=C(O)CCC/C=C\C[C@@H]1[C@@H](c2ccc(C(O)C3CCCCC3)cc2)[C@H](O)C[C@H]1Cl (stereo partly specified)
Activity_index (Canis familiaris [3]): 1

Structure (SMILES): CCCCCC(O)c1ccc([C@@H]2[C@@H](C/C=C\CCCC(=O)OC(C)C)[C@H](Cl)C[C@H]2Cl)cc1 (stereo partly specified)
Activity (Rhesus monkey [4]): 19 mmHg

pKi ([1]; hek293): 4.30 | pEC50 ([2]; hek293): 4.30
Structure (SMILES): CCCCCC(O)c1cccc([C@H]2CCC(=O)[C@@H]2CCCCCCC(=O)OC)c1 (stereo partly specified)

Structure (SMILES): O=C(O)CCC/C=C\C[C@@H]1[C@@H](c2ccc3c(c2)CCC3O)[C@H](O)C[C@H]1Cl (stereo partly specified)
Activity (Rhesus monkey [5]): 7 mmHg | Activity_index (Canis familiaris [6]): 1

Structure (SMILES): CC(C)OC(=O)CCC/C=C\C[C@@H]1[C@@H](c2ccc(C(O)C3CCCCC3)cc2)[C@H](O)C[C@H]1Cl (stereo partly specified)
Activity (Rhesus monkey [7]): 5 mmHg

Structure (SMILES): CCCCCC(=O)c1ccc([C@@H]2[C@@H](C/C=C\CCCC(=O)OC(C)C)[C@H](Cl)C[C@H]2O)cc1
Activity (Rhesus monkey [4]): 20 mmHg

Structure (SMILES): CCCCCC(=O)c1ccc([C@@H]2[C@@H](C/C=C\CCCC(=O)O)[C@H](Cl)C[C@H]2O)cc1
Activity (Rhesus monkey [4]): 31 mmHg

pKi ([1]; hek293): 4.30 | pEC50 ([2]; hek293): 4.30
Structure (SMILES): CCCCCC(O)c1ccc([C@H]2CCC=C2CCCCCCC(=O)OC)cc1 (stereo partly specified)

pKi ([1]; hek293): 4.30 | pEC50 ([2]; hek293): 4.30
Structure (SMILES): CCCCCC(O)c1ccc([C@H]2CC[C@@H](F)[C@@H]2CCCCCCC(=O)OC)cc1 (stereo partly specified)

pKi [8]: 5.55 | pEC50 [2]: 7.51
Structure (SMILES): CCCCCC(=O)c1ccc([C@H]2[C@H](O)CC(=O)[C@@H]2C/C=C\CCCC(=O)O)cc1

Structure (SMILES): CC(C)OC(=O)CCCCCC[C@@H]1[C@@H](c2ccc(C(C)(C)C)cc2)[C@H](O)C[C@H]1Cl
Activity (Rhesus monkey [7]): 8 mmHg

Structure (SMILES): CCCCCC(O)c1ccc([C@H]2CC[C@@H](Cl)[C@@H]2CCCCCCCO)cc1 (stereo partly specified)
pKi [1]: 4.30 | pEC50 [2]: 4.30

Structure (SMILES): CC(C)OC(=O)CCC/C=C\C[C@@H]1[C@@H](c2ccc(C(C)(C)CO)cc2)[C@H](O)C[C@H]1Cl
Activity (Rhesus monkey [4]): 6 mmHg
